From ChEMBL document CHEMBL4118195, “Synthesis and profiling of benzylmorpholine 1,2,4,5-tetraoxane analogue N205: Towards tetraoxane scaffolds with potential for single dose cure of malaria” (Bioorg Med Chem, 2018)

Experiments:
[1] = Metabolic stability in rat blood after 2 to 4 hrs by LC-MS method; format: ADME, tissue-based
Plasmodium berghei = assay: Antimalarial activity against Plasmodium berghei infected in mouse assessed as mouse mean survival days at 30 mg/kg, po administered as single dose; format: functional
[2] = Intrinsic clearance in human liver microsomes assessed per mg protein at 5 uM by UPLC-MS analysis; format: ADME, microsome; details: read-out: CLH
[3] = Intrinsic clearance in mouse liver microsomes assessed per mg protein at 1 uM by UPLC-MS analysis; format: ADME, microsome; details: read-out: CLH
[4] = Drug metabolism in human liver microsomes assessed as metabolite M+16 (III) formation at 5 uM after 60 mins by UPLC-MS analysis; format: ADME, microsome; details: 1 h
[5] = Drug metabolism in rat liver microsomes assessed as metabolite M+16 (III) formation at 5 uM after 60 mins by UPLC-MS analysis; format: ADME, microsome; details: 1 h
[6] = Drug metabolism in human liver microsomes assessed as metabolite M+32 (II) formation at 5 uM after 60 mins by UPLC-MS analysis; format: ADME, microsome; details: 1 h
[7] = Drug metabolism in rat liver microsomes assessed as metabolite M+32 (II) formation at 5 uM after 60 mins by UPLC-MS analysis; format: ADME, microsome; details: 1 h
[8] = Drug metabolism in human liver microsomes assessed as metabolite M+32 (III) formation at 5 uM after 60 mins by UPLC-MS analysis; format: ADME, microsome; details: 1 h
[9] = Drug metabolism in mouse liver microsomes assessed as metabolite M+32 (IV) formation at 5 uM after 60 mins by UPLC-MS analysis; format: ADME, microsome; details: 1 h
[10] = Drug metabolism in mouse liver microsomes assessed as metabolite M+32 (V) formation at 5 uM after 60 mins by UPLC-MS analysis; format: ADME, microsome; details: 1 h
[11] = Drug metabolism in mouse liver microsomes assessed as metabolite M-10(II) formation at 5 uM after 60 mins by UPLC-MS analysis; format: ADME, microsome; details: 1 h
[12] = Drug metabolism in mouse liver microsomes at 5 uM after 60 mins by UPLC-MS analysis; format: ADME, microsome; details: read-out: Drug metabolism
[13] = Drug metabolism in mouse liver microsomes assessed as morpholine ring opened metabolite formation at 5 uM after 60 mins by UPLC-MS analysis; format: ADME, microsome; details: 1 h
[14] = Drug metabolism in human liver microsomes assessed as morpholine dealkylated metabolite formation at 5 uM after 60 mins by UPLC-MS analysis; format: ADME, microsome; details: 1 h
[15] = Drug metabolism in rat liver microsomes assessed as morpholine dealkylated metabolite formation at 5 uM after 60 mins by UPLC-MS analysis; format: ADME, microsome; details: 1 h
[16] = Drug metabolism in human liver microsomes assessed as deaminated morpholine acid metabolite formation at 5 uM after 60 mins by UPLC-MS analysis; format: ADME, microsome; details: 1 h
[17] = Drug metabolism in human liver microsomes assessed as mono-oxygenation and dehydrogenation metabolite formation at 5 uM after 60 mins by UPLC-MS analysis; format: ADME, microsome; details: 1 h
[18] = Drug metabolism in mouse liver microsomes assessed as mono-oxygenation and dehydrogenation metabolite formation at 5 uM after 60 mins by UPLC-MS analysis; format: ADME, microsome; details: 1 h
Cytochrome P450 2C9 = Cytochrome P450 2C9 (Homo sapiens, UniProt P11712); assay: Inhibition of CYP2C9 in human liver microsomes assessed as tolbutamide methylhydroxylation after 4 to 40 mins in presence of NADPH by LCMS analysis; format: ADME
Cytochrome P450 2C9, sequence (P11712 whole entry): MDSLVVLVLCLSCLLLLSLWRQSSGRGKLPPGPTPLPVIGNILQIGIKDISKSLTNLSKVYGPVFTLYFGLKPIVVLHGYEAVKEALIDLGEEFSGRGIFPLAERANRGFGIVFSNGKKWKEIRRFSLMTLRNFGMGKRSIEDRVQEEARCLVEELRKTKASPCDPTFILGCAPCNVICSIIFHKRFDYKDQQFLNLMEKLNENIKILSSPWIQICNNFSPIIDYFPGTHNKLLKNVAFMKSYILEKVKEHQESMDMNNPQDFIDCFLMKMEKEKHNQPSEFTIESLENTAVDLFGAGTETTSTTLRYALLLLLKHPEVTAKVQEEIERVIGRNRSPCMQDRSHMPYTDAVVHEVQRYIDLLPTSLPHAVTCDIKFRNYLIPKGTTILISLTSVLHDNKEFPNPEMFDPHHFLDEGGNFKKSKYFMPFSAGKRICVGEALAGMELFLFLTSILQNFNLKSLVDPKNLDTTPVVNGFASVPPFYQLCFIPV

[19] = Cmax in humanized NOD.Cg-Prkdcscid Il2rgtm1Wjl/SzJ mouse infected with Plasmodium falciparum Pf3D70087/N9 at 30 mg/kg, po administered as single dose after 0.25 to 23 hrs by LC-MS/MS analysis; format: ADME, organism-based; set-up: dose 30 mg/kg, route oral; details: in vivo
[20] = Cmax in humanized NOD.Cg-Prkdcscid Il2rgtm1Wjl/SzJ mouse infected with Plasmodium falciparum Pf3D70087/N9 at 50 mg/kg, po administered as single dose after 0.25 to 23 hrs by LC-MS/MS analysis; format: ADME, organism-based; set-up: dose 50 mg/kg, route oral; details: in vivo
[21] = Cmax in humanized NOD.Cg-Prkdcscid Il2rgtm1Wjl/SzJ mouse infected with Plasmodium falciparum Pf3D70087/N9 at 100 mg/kg, po administered as single dose after 0.25 to 23 hrs by LC-MS/MS analysis; format: ADME, organism-based; set-up: dose 100 mg/kg, route oral; details: in vivo
[22] = Tmax in humanized NOD.Cg-Prkdcscid Il2rgtm1Wjl/SzJ mouse infected with Plasmodium falciparum Pf3D70087/N9 at 15 mg/kg, po administered as single dose by LC-MS/MS analysis; format: ADME, organism-based; details: in vivo
[23] = Tmax in humanized NOD.Cg-Prkdcscid Il2rgtm1Wjl/SzJ mouse infected with Plasmodium falciparum Pf3D70087/N9 at 30 mg/kg, po administered as single dose by LC-MS/MS analysis; format: ADME, organism-based; details: in vivo
[24] = AUC (0 to t) in humanized NOD.Cg-Prkdcscid Il2rgtm1Wjl/SzJ mouse infected with Plasmodium falciparum Pf3D70087/N9 at 15 mg/kg, po administered as single dose by LC-MS/MS analysis; format: ADME, organism-based; details: in vivo
Mus musculus = assay: Dose normalized AUC (0 to t) in humanized NOD.Cg-Prkdcscid Il2rgtm1Wjl/SzJ mouse infected with Plasmodium falciparum Pf3D70087/N9 at 30 mg/kg, po administered as single dose by LC-MS/MS analysis; format: ADME, organism-based; details: in vivo
[25] = Retention time of the compound; format: physicochemical

In the case of c1cc(C2CCC3(CC2)OOC2(OO3)C3CC4CC(C3)CC2C4)ccc1CN1CCOCC1 (stereo not drawn), the Stability [1] is reported as “Stable”, the MSD (Plasmodium berghei) is reported as 26.3 days and the microsomal CLint at 5 µM [2] is reported as 41 µL/min/mg. For the same compound, the microsomal CLint at 1 µM [3] was 37 µL/min/mg, the Drug metabolism [4] was “Metabolite_Notdetected” and the Drug metabolism [5] was “Metabolite_Notdetected”. For the same compound, the Drug metabolism [6] was “Metabolite_Notdetected”, the Drug metabolism [7] was “Metabolite_Notdetected” and the Drug metabolism [8] was “Metabolite_Notdetected”. For the same compound, the Drug metabolism [9] was “Metabolite_Detected”, the Drug metabolism [10] was “Metabolite_Notdetected” and the Drug metabolism [11] was “Metabolite_Detected”. The metabolised at 1 h, 5 µM [12] was 39%, the Drug metabolism [13] was “Metabolite_Notdetected” and the Drug metabolism [14] was “Metabolite_Notdetected”. The Drug metabolism [15] was “Metabolite_Notdetected”, the Drug metabolism [16] was “Metabolite_Notdetected” and the Drug metabolism [17] was “Metabolite_Notdetected”. For the same compound, the Drug metabolism [18] was “Metabolite_Notdetected”, the IC50 (Cytochrome P450 2C9) was greater than 20 µM and the Cmax [19] was 148 ng/mL. It also gave a Cmax [20] of 607 ng/mL, a Cmax [21] of 250 ng/mL and a Tmax [22] of 1 h. For the same compound, the Tmax [23] was 1 h, the AUC(0-t) [24] was 749 ng·h/mL and the AUCt/dose (Mus musculus) was 0.0313 µg·h/mL/mg/kg. The Retention_time [25] was 3.68 min.
